Measured values: patent US8207313B2, “Natural products from Vinca” (William Marsh Rice University, priority 2007, dated 2012)

How the values were obtained:
Format in all cases: cell-based, Human
[1] = test system: MMP-9; assay: MMP-9 expression in LPS-stimulated THP-1 cells (gelatin zymography); conditions: THP-1 cells pre-treated 2 h with 5, 10 and 20 μg/ml compound, then 1 μg/ml LPS, supernatant at 24 h; MMP-2 internal control
Protocol: Several of the compounds were tested for pharmaceutical activity against two well known inflammatory mediators—MMP-9 and TNF-α. Compounds (1), (2), (3), and (4), were tested. An inflammatory reaction is stimulated with LPS and MMP-2 is used as an internal gene expression control.
The inhibitory effect of flavonoid glycoside compounds on MMP-9 expression (FIG. 1) was assayed in THP-1 cells stimulated with LPS. In panels A, C, E and G; THP-1 cells were pre-treated with 5, 10 and 20 μg/ml of the compound specified for 2 h. After pre-treatment with the relevant compound, the cells were then stimulated with 1 μg/ml LPS. The culture supernatants were collected 24 h after activation and subjected to substrate gel electrophoresis (gelatin zymography) and staining with Coomassie brilliant blue.

[2] = test system: THP-1 cells; assay: THP-1 cell viability, MTS assay; conditions: THP-1 cells treated with the compound as in the MMP-9 test
Protocol: In panels B, D, F and H; THP-1 cells were treated with the compound in A, C, E and G, and cell viability was tested with MTS assay.

[3] = test system: TNF-α; assay: TNF-α in culture supernatant of LPS-activated THP-1 cells (sandwich ELISA); conditions: THP-1 cells pre-treated 2 h with compound, 1 μg/ml LPS, supernatant at 24 h, ELISA in duplicate
Protocol: The blocking effect of compounds on cytokines expression (FIG. 2) induced by LPS in monocytic cell lines was then assessed. THP-1 cells were pre-treated with compounds for 2 h and activated with 1 μg/ml LPS. Culture supernatants were collected in 24 h and the TNF-α concentrations were measured using sandwich ELISA. Measurements were done in duplicate. […] Therefore the compounds work to suppress inflammatory response and are potent anti-inflammatory compounds.

Structure (SMILES) | inhibition of MMP-9 expression [1] | cell viability [2] | TNF-α production [3]
C/C=C(\C)[C@@H](CCC(C)CCCC(C)CCCC(C)C)OC1C(CO)OC(Oc2cc(O)c3c(=O)c(O)c(-c4ccc(OC)c(OC)c4)oc3c2)C(O)C1O (stereo partly drawn) [Compound (1), 3,5,7-trihydroxy-3′,4′-dimethoxyflavone-7β-D-glucopyranosyl(4″-13′″)2′″,6′″,10′″,14′″-tetramethyl hexadec-14-ene] | inhibits MMP-9 expression in a dose dependant manner | no negative impact on cell viability | inhibited
CCC(C)C(CCC(C)CCCC(C)CCCC(C)C)OC1(CO)COC(COc2c(-c3ccc(OC)cc3)oc3cc(O)cc(O)c3c2=O)C(O)C1O [Compound (2), 3,5,7-trihydroxy-4′-methoxyflavone-3β-D-glucopyranosyl (4″-13′″)-2′″,6′″,10′″,14′″-tetramethyl hexadecane] | inhibits MMP-9 expression in a dose dependant manner | no negative impact on cell viability | inhibited
C=C(CCC=C(C)C)CC/C=C(\C)CC(=O)OCC1OC(Oc2ccc3c(c2)OC(c2ccc(OC)c(OC)c2)CC3=O)C(O)C(O)C1O (stereo not drawn) [Compound (3)] | inhibits MMP-9 expression in a dose dependant manner | no negative impact on cell viability | inhibited
